The results in this text go back to patent publication US6391599B1, “Sham-sensitive terminal oxidase gene from xylose-fermenting yeast” (priority 2000, dated 2002).

“Also recorded” adds a separate entry of the source. A value given as a limit tells only on which side of the number the result lay.

Common to all, as to assay type: cell-based, Pichia stipitis
Set-up in all cases: key to Rotenone sensitivity (rotenone-insensitive respiration): +: Cells sustained rotenone-insensitive respiration; −: Cells could not sustain rotenone-insensitive respiration

The test system of assay [1] is P. stipitis FPL-Shi31 (sto1-Δ). Kind of assay: Respiration measurement (oxygen uptake) with inhibitor. Conditions: for Rotenone sensitivity (rotenone-insensitive respiration): 0.1 mM rotenone, FPL-Shi31; for Sensitivity of respiration to rotenone (in words): sto1Δ mutant. The procedure:
(§1) P. stipitis strains were grown overnight in YNBUP-xylose (2%) medium under aerobic conditions. Then half of the overnight-grown cells were transferred to 25 mL fresh medium to grow for 16 h to mid-log phase under the same conditions. The cells were harvested and washed in an assay buffer containing 20 mM potassium phosphate (pH7.0) and 5 mM magnesium chloride. The cells were resuspended in 500 μL of the same buffer for assays. Oxygen uptake was measured by using a Clark type of electrode (Yellow Spring Instrument). The assay was performed in an assay buffer containing 20 mM potassium phosphate, 5 mM magnesium chloride, plus xylose or glucose (2%) as the substrate at 30° C. The assay buffer was saturated with air before the experiment. Ten to fifty μL of cells were injected into the assay chamber and the total reaction volume was 2 mL. Antimycin A, SHAM or rotenone was dissolved in dimethyl formamide while potassium cyanide was dissolved in water. Inhibitor solution was injected into the chamber after adding the cells.

Assay [2] deals with P. stipitis FPL-Shi21 (cyc1-Δ). Described as above. The note with it: for Effect on respiration: FPL-Shi21 (cyc1Δ); for Rotenone sensitivity (rotenone-insensitive respiration): 0.1 mM rotenone, FPL-Shi21; for Sensitivity of respiration to rotenone (in words): cyc1Δ mutant. On the procedure: as §1
The test system of assay [3] is P. stipitis wild-type CBS 6054. Briefly: Respiration measurement (oxygen uptake, Clark type electrode) with inhibitor. The note with it: 0.1 mM rotenone. The procedure:
as §1

Assay [4] deals with P. stipitis FPL-UC7 (ura3-3). Briefly: Respiration measurement (oxygen uptake) with inhibitor. Conditions: for Rotenone sensitivity (rotenone-insensitive respiration): 0.1 mM rotenone. The procedure:
as §1

Turning to `O=C(NO)c1ccccc1O` [SHAM, salicyl hydroxymate], the “Effect on respiration trace” value in assay [1] (4 mM SHAM, sto1Δ cells pre-grown on YNB-xylose (2%)) is “did not show any change”. The Effect on respiration result in assay [2] is given as “completely blocked”.
Regarding `C=C(C)[C@H]1Cc2c(ccc3c2O[C@@H]2COc4cc(OC)c(OC)cc4[C@@H]2C3=O)O1` [rotenone], the “Rotenone sensitivity (rotenone-insensitive respiration)” value in assay [3] (glucose-grown cells, CBS 6054) is on record as “−”; in assay [3] (xylose-grown cells, CBS 6054) it was “+”; in assay [1] (glucose-grown cells) it was “−”; in assay [1] (xylose-grown cells) it was “−”; in assay [4] (glucose-grown cells), “−”; in assay [4] (xylose-grown cells) it was “+”. Besides, the “Rotenone sensitivity (rotenone-insensitive respiration)” value in assay [2] (glucose-grown cells) and in assay [2] (xylose-grown cells) was “−” in each case. Also, the “Sensitivity of respiration to rotenone (in words)” value was “could not sustain any respiration; also recorded: rotenone-sensitive” in assay [3] (glucose-grown cells, CBS 6054); “respiration was sustained; also recorded: insensitivity to rotenone” in assay [3] (xylose-grown cells, CBS 6054); “rotenone-sensitive” in assay [1] (glucose-grown cells); “rotenone-sensitive” in assay [1] (xylose-grown cells); “rotenone-sensitive” in assay [4] (glucose-grown cells); “insensitivity to rotenone” in assay [4] (xylose-grown cells). The “Sensitivity of respiration to rotenone (in words)” value in assay [2] (glucose-grown cells) and in assay [2] (xylose-grown cells) was “rotenone-sensitive” each time. Moreover, in assay [3] (glucose-grown cells, CBS 6054), the “Time after injection until cells died and floated in the chamber” value was not above 1 min. Also, the “Oxygen consumption rate, +rotenone” value in assay [3] (xylose-grown cells) was 4.6 ± 0.2 µM/mg/h.
For antimycin A, the Effect on respiration entry is recorded as “respiration dropped to zero” in assay [1] (10 μM antimycin A, sto1Δ mutant cells) and “insensitivity” in assay [2].
